Biological target: T1, amyloid-β1–42 (Aβ1–42) (Homo sapiens, UniProt P05067)
T1 construct: gene APP; Aβ1–42 monomers, biotinylated, immobilized on streptavidin biosensor
Assay: biolayer interferometry (Octet R8), steady-state […] fit
Assay type: binding

T1 sequence (P05067 672-713): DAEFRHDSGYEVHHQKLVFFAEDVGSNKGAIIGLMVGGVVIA

O=C(O[C@@H]1Cc2c(O)cc(O)cc2O[C@@H]1c1cc(O)c(O)c(O)c1)c1cc(O)c(O)c(O)c1 [EGCG]
Kd: 93 µM

Source: paper PMC12593347, “Profiling Class-Wide Bioactivities of Flavonoids While Minimizing Compound-Specific Effects Using an Equimolar Mixture Strategy” (Journal of Agricultural and Food Chemistry, 2025)
